Publication PMC10714432 (ACS Pharmacology & Translational Science, 2023)

Molecular target: PDE5A1 (Homo sapiens, UniProt O76074)
Test: cGMP hydrolysis by purified PDE5A1, cGMP Lumit bioluminescent readout
Type: biochemical

CC(C)Cn1c(=O)n(C)c(=O)c2[nH]cnc21 [IBMX]
IC50: 3.8 µM
